# Experimental data as given in patent publication US20070020195A1, “Nasally administered appetite suppressants” (priority 2005, published 2007).
# Several values for one entry are separate records, joined by “and”; a condition that tells them apart may be missing. Equal entries are not always repeated.
# Assays:
# [1] = Dose-escalation food intake trial in obese subjects with Universal Eating Monitor (Examples 2-5); format: in vivo, human
# [2] = Double-blind crossover food intake study, intranasal lidocaine vs saline before a fried chicken meal; format: in vivo, human; conditions: four subjects
# Protocol: Three males and one female between 23 and 60 years of age with BMI's less than 25 kg/m2 participated in a study of food intake. The subjects presented to the food intake laboratory at noon after an overnight fast except for water from 9 pm the prior night on two occasions a week apart. They had 10 mg (0.5 cc) of lidocaine or 0.5 cc normal saline administered in each nostril 20 minutes before presentation of a meal consisting of fried chicken pieces and water. They were allowed to eat and drink as much or as little as they wished over a 20-minute period, and there were more chicken pieces than they could reasonably be expected to eat at one sitting. The order of the lidocaine and saline was balanced and the study was performed in a double-blind fashion.
# The four subjects consumed 15%, 11%, 27% and 33% less on the lidocaine week compared to the placebo week. […] Sibutramine, an obesity drug, gives an 8% weight loss at 6 months and causes a 12% decrease in food intake.
# [3] = applied topically; cited from earlier work
# [4] = 70 kg adult; cited from earlier work
# [5] = cited from earlier work
compound,measurement,setting,value
leptin,anorexiant effect,"[1]; about 20 mg per day leptin added to lidocaine, Example 5",further anorexiant effect
CCN(CC)CC(=O)Nc1c(C)cccc1C [lidocaine],"reduction in food consumed on lidocaine week compared to placebo week, individual subjects","[2]; 10 mg (0.5 cc) lidocaine in each nostril 20 minutes before meal, BMI less than 25 kg/m2",15% and 11% and 27% and 33%
same,overall reduction in food intake,"[2]; 10 mg lidocaine in each nostril 20 minutes before meal, p<0.02",21.5%+10.2%
same,food consumption with escalating doses,"[1]; 2.5, 10 and 25 mg lidocaine per nostril vs saline, BMI 30-40, Example 2",reduction in food consumption
same,duration of anesthesia,[3],30 to 45 min
same,time to peak anesthesia,[3],2 to 5 min
same,maximum safe dosage for topical anesthetic,[4],500 mg
Cn1c(=O)c2c(ncn2C)n(C)c1=O [caffeine],effect on energy expenditure,"[1]; about 200 mg caffeine orally or nasally added to lidocaine, Example 4",increasing energy expenditure
CC(C)CC(N(C)C)C1(c2ccc(Cl)cc2)CCC1 (stereo not shown) [Sibutramine],weight loss,[5]; at 6 months,8%
same,decrease in food intake,[5]; in vivo,12%
